Test results: US5187192A, “Cyclobutyl derivatives having lipoxygenase inhibitory activity” (Abbott Laboratories, priority 1992, dated 1993)

Experiments:
[1] = system: leukotriene biosynthesis; test: Inhibition of leukotriene biosynthesis in vivo after oral administration, rat peritoneal anaphylaxis model; conditions: at 30 μM/kg, gavage one hour prior to antigen challenge, peritoneal fluid 15 minutes after challenge
Description: Inhibition of the biosynthesis of leukotrienes in vivo after oral administration of compound was determined using a rat peritoneal anaphylaxis model in a similar manner as that described by Yound and coworkers (Young, P. R.; Dyer, R. D.; Carter, G. W. Fed. Proc., Fed. Am. Soc. Exp. Biol. 1985, 44, 1185). In this model rats were injected intraperitoneally (ip) with rabbit antibody to bovine serum albumin (BSA) and three hours later injected ip with BSA to induce an antigen-antibody response. Rats were sacrificed 15 minutes after this challenge and the peritoneal fluids were collected and analyzed for leukotriene levels. Test compounds were administered by gavage one hour prior to the antigen challenge. Percent inhibition values were determined by comparing the treatment group to the mean of the control group.

[2] = molecular target: T1, 5-Lipoxygenase (Homo sapiens, UniProt P09917); test: Inhibition of calcium ionophore-induced LTB4 biosynthesis in human whole blood (5-lipoxygenase inhibition); format: cell-based; conditions: human heparinized whole blood, A23187 8.3 μM; for IC50: 15 min preincubation at 37° C., 30 min, read-out: IC50, inhibition of 5-lipoxygenase from stimulated LTB4 formation in human whole blood; for percent inhibition of 5-lipoxygenase from stimulated LTB4 formation in human whole blood: @ 0.1 (column unit 10^-6 M)
T1 construct: Human heparinized whole blood was preincubated with test compounds or vehicle for 15 min; endogenous in cells; host or cells: heparinized human whole blood (blood cells stimulated with calcium ionophore A23187)
T1 sequence (P09917 1-674): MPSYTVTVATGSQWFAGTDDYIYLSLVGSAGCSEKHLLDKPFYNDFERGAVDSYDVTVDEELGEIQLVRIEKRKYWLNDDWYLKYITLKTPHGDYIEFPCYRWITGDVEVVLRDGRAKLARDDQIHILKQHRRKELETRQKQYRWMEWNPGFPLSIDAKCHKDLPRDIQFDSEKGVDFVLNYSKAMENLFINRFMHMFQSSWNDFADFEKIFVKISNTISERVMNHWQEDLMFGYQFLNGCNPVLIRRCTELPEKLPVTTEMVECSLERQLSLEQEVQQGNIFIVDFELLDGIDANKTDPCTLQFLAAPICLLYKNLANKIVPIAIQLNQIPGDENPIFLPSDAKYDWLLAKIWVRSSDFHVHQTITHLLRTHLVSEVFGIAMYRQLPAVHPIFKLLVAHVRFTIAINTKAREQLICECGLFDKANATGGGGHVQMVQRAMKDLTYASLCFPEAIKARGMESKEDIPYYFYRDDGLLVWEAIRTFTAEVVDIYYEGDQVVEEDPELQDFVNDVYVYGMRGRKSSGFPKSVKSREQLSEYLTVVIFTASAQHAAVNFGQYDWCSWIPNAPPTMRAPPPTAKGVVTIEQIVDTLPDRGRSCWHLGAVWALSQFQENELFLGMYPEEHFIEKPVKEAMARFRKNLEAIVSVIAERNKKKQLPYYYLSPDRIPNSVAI
Description: Inhibition of leukotriene biosynthesis was evaluated in an assay, involving calcium ionophore-induced LTB4 biosynthesis expressed human whole blood. […] The methanol extract was analyzed for LTB4 using a commercially available radioimmunoassay.

SMILES | IC50 [2] | percent inhibition of 5-lipoxygenase from stimulated LTB4 formation in human whole blood [2] | Percent Inhibition of Leukotriene Biosynthesis [1]
COc1ccc2cc(C3CC(N(O)C(N)=O)C3)ccc2c1 (single isomer, unassigned) [Example 4a, N-[3-(6-methoxy-2-naphthyl)-cyclobutyl]-N-hydroxyurea] | 230 nM | – | –
COc1ccc2cc(C3CC(N(O)C(N)=O)C3)ccc2c1 (single isomer, unassigned) [Example 4b, N-[3-(6-methoxy-2-naphthyl)-cyclobutyl]-N-hydroxyurea] | 520 nM | – | –
NC(=O)N(O)C1CC(c2ccc(Oc3ccc(F)cc3)s2)C1 (single isomer, unassigned) [Example 3b, N-[3-(5-(4-fluorophenoxy)thien-2-yl)-cyclobutyl]-N-hydroxyurea] | – | 52% | 82%
NC(=O)N(O)C1CC(c2cccc(Oc3ccc(F)cc3)c2)C1 (single isomer, unassigned) [Example 1b, N-[3-(3-(4-fluorophenoxy)phenyl)-cyclobutyl]-N-hydroxyurea] | 160 nM | – | 59%
NC(=O)N(O)C1CC(c2ccccc2)C1 (single isomer, unassigned) [Example 2a, N-[3-phenylcyclobutyl]-N-hydroxyurea] | 330 nM | – | 51%
NC(=O)N(O)C1CC(c2ccc(-c3ccccc3)cc2)C1 (single isomer, unassigned) [Example 5a, N-[3-(4-biphenyl)-cyclobutyl]-N-hydroxyurea] | 90 nM | – | –

Second part, led by results:

IC50 [2] | percent inhibition of 5-lipoxygenase from stimulated LTB4 formation in human whole blood [2] | SMILES | Percent Inhibition of Leukotriene Biosynthesis [1]
130 nM | – | NC(=O)N(O)C1CC(c2cccc(Oc3ccc(F)cc3)c2)C1 (single isomer, unassigned) [Example 1a, N-[3-(3-(4-fluorophenoxy)phenyl)-cyclobutyl]-N-hydroxyurea] | 76%
1210 nM | – | COc1cccc(C2CC(N(O)C(C)=O)C2)c1 (single isomer, unassigned) [Example 6b, N-[3-(3-methoxyphenyl)cyclobutyl]-N-hydroxyacetamide] | –
300 nM | – | NC(=O)N(O)C1CC(c2ccccc2)C1 (single isomer, unassigned) [Example 2b, N-[3-phenylcyclobutyl]-N-hydroxyurea] | 45%
– | 53% | NC(=O)N(O)C1CC(c2ccc(Oc3ccc(F)cc3)s2)C1 (single isomer, unassigned) [Example 3a, N-[3-(5-(4-fluorophenoxy)thien-2-yl)-cyclobutyl]-N-hydroxyurea] | –
510 nM | – | COc1cccc(C2CC(N(O)C(C)=O)C2)c1 (single isomer, unassigned) [Example 6a, N-[3-(3-methoxyphenyl)cyclobutyl]-N-hydroxyacetamide] | –
960 nM | – | NC(=O)N(O)C1CC(c2ccc(-c3ccccc3)cc2)C1 (single isomer, unassigned) [Example 5b, N-[3-(4-biphenyl)-cyclobutyl]-N-hydroxyurea] | –
